Measurements as given in patent publication US9181273B2, “Morpholine-spirocyclic piperidine amides as modulators of ion channels” (Vertex Pharmaceuticals Incorporated, priority 2011, dated 2015).
Where two headings read alike, the source gives them in different places.

Target: human NaV subtype, like NaV 1.7 (Homo sapiens, UniProt Q15858)
Experiment: E-VIPR optical membrane potential assay with electrical stimulation
Format: cell-based
[1] = active against one or more sodium channels, assay and NaV subtype not specified for Table 3, read-out: IC50 Binned Activity Data

Chain of human NaV subtype, like NaV 1.7 (Q15858 whole entry): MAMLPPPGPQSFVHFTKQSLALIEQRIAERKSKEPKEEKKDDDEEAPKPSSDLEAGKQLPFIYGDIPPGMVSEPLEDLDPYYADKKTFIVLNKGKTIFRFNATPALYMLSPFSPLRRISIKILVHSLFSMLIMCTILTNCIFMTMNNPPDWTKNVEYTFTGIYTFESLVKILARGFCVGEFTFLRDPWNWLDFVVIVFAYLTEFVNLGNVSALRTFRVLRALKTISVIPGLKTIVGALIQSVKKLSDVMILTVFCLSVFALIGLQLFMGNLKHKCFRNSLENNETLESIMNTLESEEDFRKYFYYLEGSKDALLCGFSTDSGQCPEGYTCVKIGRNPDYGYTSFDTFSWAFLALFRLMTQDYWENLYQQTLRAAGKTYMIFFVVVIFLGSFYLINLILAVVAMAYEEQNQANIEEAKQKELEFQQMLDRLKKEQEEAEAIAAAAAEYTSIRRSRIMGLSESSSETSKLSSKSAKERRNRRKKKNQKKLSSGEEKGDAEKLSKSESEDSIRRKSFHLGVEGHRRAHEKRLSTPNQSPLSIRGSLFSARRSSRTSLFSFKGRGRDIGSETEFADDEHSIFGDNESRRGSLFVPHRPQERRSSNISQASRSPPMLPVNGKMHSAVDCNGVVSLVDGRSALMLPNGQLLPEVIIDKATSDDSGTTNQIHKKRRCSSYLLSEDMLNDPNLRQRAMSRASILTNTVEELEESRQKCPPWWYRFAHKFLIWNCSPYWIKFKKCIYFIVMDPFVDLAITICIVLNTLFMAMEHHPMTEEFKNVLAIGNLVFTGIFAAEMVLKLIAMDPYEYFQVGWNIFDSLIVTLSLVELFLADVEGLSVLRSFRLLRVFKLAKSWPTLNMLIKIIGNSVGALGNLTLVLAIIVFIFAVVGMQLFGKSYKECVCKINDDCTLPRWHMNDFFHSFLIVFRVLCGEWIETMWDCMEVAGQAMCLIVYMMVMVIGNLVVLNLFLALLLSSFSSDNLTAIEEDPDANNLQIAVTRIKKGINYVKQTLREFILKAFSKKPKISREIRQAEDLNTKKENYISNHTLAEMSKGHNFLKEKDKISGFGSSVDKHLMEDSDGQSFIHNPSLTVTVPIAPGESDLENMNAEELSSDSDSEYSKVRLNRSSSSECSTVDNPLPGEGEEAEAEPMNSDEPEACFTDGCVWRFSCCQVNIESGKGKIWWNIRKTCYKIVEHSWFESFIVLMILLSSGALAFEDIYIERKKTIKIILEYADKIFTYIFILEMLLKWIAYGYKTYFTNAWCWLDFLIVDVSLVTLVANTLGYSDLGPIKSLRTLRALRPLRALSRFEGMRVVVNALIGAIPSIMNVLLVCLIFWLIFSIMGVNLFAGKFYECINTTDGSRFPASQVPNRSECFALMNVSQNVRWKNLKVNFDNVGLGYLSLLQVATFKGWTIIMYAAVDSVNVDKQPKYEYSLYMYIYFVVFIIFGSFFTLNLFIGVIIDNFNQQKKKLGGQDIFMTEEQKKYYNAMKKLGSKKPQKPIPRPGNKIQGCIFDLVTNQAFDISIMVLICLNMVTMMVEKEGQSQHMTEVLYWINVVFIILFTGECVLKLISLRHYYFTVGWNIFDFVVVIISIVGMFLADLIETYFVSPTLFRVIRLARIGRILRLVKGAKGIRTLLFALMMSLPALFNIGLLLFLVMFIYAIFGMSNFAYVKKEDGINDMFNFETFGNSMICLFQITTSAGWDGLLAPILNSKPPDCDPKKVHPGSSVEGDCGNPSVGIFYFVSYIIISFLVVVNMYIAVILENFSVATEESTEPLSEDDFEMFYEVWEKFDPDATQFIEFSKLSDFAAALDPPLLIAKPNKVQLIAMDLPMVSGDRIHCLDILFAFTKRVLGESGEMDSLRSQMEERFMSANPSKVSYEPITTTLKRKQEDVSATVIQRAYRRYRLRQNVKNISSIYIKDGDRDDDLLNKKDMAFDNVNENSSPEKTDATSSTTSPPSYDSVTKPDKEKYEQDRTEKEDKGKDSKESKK

| Structure (SMILES) | IC50 [1] [nM] | IC50 [nM] |
| --- | --- | --- |
| Cc1cccc(C2CN(CC(F)F)CC3(CCN(C(=O)c4ccc(S(=O)(=O)C(C)C)c(C)c4)CC3)O2)n1 (stereo not shown) [Compound 265] | 2000 to 5000 | – |
| CC(C)CS(=O)(=O)c1ccc(C(=O)N2CCC3(CC2)CN(CC(F)(F)F)CC(c2ccccc2)O3)cc1 (stereo not shown) [Compound 165] | < 2000 | – |
| Cc1cn[nH]c1C1CN(CC(F)F)CC2(CCN(C(=O)c3ccc(OC(C)C)c(F)c3)CC2)O1 (stereo not shown) [Compound 298] | < 2000 | – |
| Cc1cc(C(=O)N2CCC3(CC2)CN(CC(F)F)CC(c2ccc(F)cc2)O3)ccc1OC(C)C (stereo not shown) [Compound 27] | < 2000 | – |
| COCC1CN(c2ccc(OC)cc2)CC2(CCN(C(=O)c3ccc(OC(C)C)c(C)c3)CC2)O1 (stereo not shown) [Compound 183] | < 2000 | – |
| Cc1cnc(C2CN(C(C)(C)C)CC3(CCN(C(=O)c4ccc(OC(C)C)c(C)c4)CC3)O2)o1 (stereo not shown) [Compound 49] | < 2000 | – |
| CC(C)CS(=O)(=O)c1ccc(C(=O)N2CCC3(CC2)CN(CC(F)F)CC(c2ccc(F)cc2)O3)cc1 (stereo not shown) [Compound 109] | 2000 to 5000 | – |
| Cc1cc(C(=O)N2CCC3(CC2)CN(Cc2ccccc2)CC(CO)O3)ccc1OC(C)C (stereo not shown) [Compound 82] | 2000 to 5000 | – |
| COCC1CN(c2ncccn2)CC2(CCN(C(=O)c3ccc(C4(O)CCC4)c(C)c3)CC2)O1 (stereo not shown) [Compound 93] | < 2000 | – |
| CCOCCN1CC(COC)OC2(CCN(C(=O)c3ccc(OC(C)C)c(C)c3)CC2)C1 (stereo not shown) [Compound 55] | < 2000 | – |
| COCC1CN(c2ncccn2)CC2(CCN(C(=O)c3ccc(CC(C)(C)O)cc3)CC2)O1 (stereo not shown) [Compound 240] | > 5000 | – |
| COCC1CN(C(C)C)CC2(CCN(C(=O)c3ccc(OC(C)C)c(C)c3)CC2)O1 (stereo not shown) [Compound 73] | < 2000 | – |
| Cc1cc(C(=O)N2CCC3(CC2)CNCC(c2ccccc2)O3)ccc1OC(C)C (stereo not shown) [Compound 163] | > 5000 | – |
| CC#CCN1CC(COC)OC2(CCN(C(=O)c3ccc(OC(C)C)c(C)c3)CC2)C1 (stereo not shown) [Compound 218] | < 2000 | – |
| CC(C)Oc1ccc(C(=O)N2CCC3(CC2)CN(CC(F)F)CC(c2ccccc2Cl)O3)cc1F (stereo not shown) [Compound 190] | < 2000 | – |
| CCN1CC(C)(C)OC2(CCN(C(=O)c3ccc(OC(C)C)c(C)c3)CC2)C1 [Compound 28] | > 5000 | – |
| Cc1cc(C(=O)N2CCC3(CC2)CN(CC(F)F)CC(c2ccccc2F)O3)ccc1OC(C)C (stereo not shown) [Compound 44] | < 2000 | – |
| COc1cc(C(=O)N2CCC3(CC2)CN(CC(F)F)CC(c2ccccn2)O3)ccc1OC(C)C (stereo not shown) [Compound 3] | – | < 2000 |
| Cc1nc(C(=O)N2CCC3(CC2)CN(CC(F)(F)F)CC(c2ccccc2)O3)ccc1C#N (stereo not shown) [Compound 106] | > 5000 | – |
| Cc1cnc(C2CN(Cc3ccccc3)CC3(CCN(C(=O)c4ccc(OC(C)C)c(C)c4)CC3)O2)o1 (stereo not shown) [Compound 83] | < 2000 | – |
| COCC1CN(c2cccc(C#N)c2)CC2(CCN(C(=O)c3ccc(OC(C)C)c(C)c3)CC2)O1 (stereo not shown) [Compound 228] | < 2000 | – |
| Cc1cc(C(=O)N2CCC3(CC2)CN(CC(F)F)CC(c2[nH]ncc2C)O3)ccc1OC(C)C (stereo not shown) [Compound 150] | < 2000 | – |
| COc1cc(C(=O)N2CCC3(CC2)CN(CC(F)F)CC(c2ccc(F)cc2)O3)ccc1OC(C)C (stereo not shown) [Compound 274] | < 2000 | – |
| Cc1cc(C(=O)N2CCC3(CC2)CN(CC(F)F)CC(c2ccccc2)O3)ccc1C(C)(C)O (stereo not shown) [Compound 168] | < 2000 | – |
| Cc1cc(C(=O)N2CCC3(CC2)CN(CC(F)F)CC(c2ccn(C)n2)O3)ccc1OC(C)C (stereo not shown) [Compound 306] | < 2000 | – |
| Cc1cc(C(=O)N2CCC3(CC2)CN(CC(F)(F)F)CC(c2ccccc2)O3)ccc1C1COC1 (stereo not shown) [Compound 251] | < 2000 | – |

| Structure (SMILES) | IC50 [1] [nM] | IC50 [nM] |
| --- | --- | --- |
| CCC1CN(c2ncccn2)CC2(CCN(C(=O)c3ccc(C4(O)CCCC4)c(F)c3)CC2)O1 (stereo not shown) [Compound 271] | < 2000 | – |
| CCC1CN(c2ccccn2)CC2(CCN(C(=O)c3ccc(C(C)(C)O)c(C)c3)CC2)O1 (stereo not shown) [Compound 97] | < 2000 | – |
| CCC(CC)CN1CC(COC)OC2(CCN(C(=O)c3ccc(OC(C)C)c(C)c3)CC2)C1 (stereo not shown) [Compound 112] | < 2000 | – |
| COCC1CN(c2ncccn2)CC2(CCN(C(=O)c3ccc(OCC(C)(C)O)c(C)c3)CC2)O1 (stereo not shown) [Compound 216] | 2000 to 5000 | – |
| COCC1CN(c2nccs2)CC2(CCN(C(=O)c3ccc(OC(C)C)c(C)c3)CC2)O1 (stereo not shown) [Compound 180] | < 2000 | – |
| COCC1CN(CC(F)F)CC2(CCN(C(=O)c3ccc(OC(C)C)c(C)c3)CC2)O1 (stereo not shown) [Compound 178] | < 2000 | – |
| COCCCN1CC(COC)OC2(CCN(C(=O)c3ccc(OC(C)C)c(C)c3)CC2)C1 (stereo not shown) [Compound 175] | < 2000 | – |
| Cc1cc(C(=O)N2CCC3(CC2)CN(CC(F)F)CC(c2cc[nH]n2)O3)ccc1OC(C)C (stereo not shown) [Compound 21] | < 2000 | – |
| CC(C)Oc1ccc(C(=O)N2CCC3(CC2)CN(CC(F)F)CC(c2ccn(C)n2)O3)cc1F (stereo not shown) [Compound 263] | < 2000 | – |
| COCC1CN(C2CCOCC2)CC2(CCN(C(=O)c3ccc(OC(C)C)c(C)c3)CC2)O1 (stereo not shown) [Compound 270] | 2000 to 5000 | – |
| CCN1CC(c2ccccc2)OC2(CCN(C(=O)c3ccc(C(C)(C)O)cc3)CC2)C1 (stereo not shown) [Compound 158] | > 5000 | – |
| COc1cc(C(=O)N2CCC3(CC2)CN(CC(F)F)CC(c2ccccn2)O3)cc(F)c1OC(C)C (stereo not shown) [Compound 297] | < 2000 | – |
| CCC1CN(c2ncccn2)CC2(CCN(C(=O)c3ccc(C(O)(CC)CC)c(C)c3)CC2)O1 (stereo not shown) [Compound 1] | 2000 to 5000 | – |
| Cc1cc(C(=O)N2CCC3(CC2)CN(CC(F)F)CC(c2ccccn2)O3)ccc1OCCO (stereo not shown) [Compound 296] | > 5000 | – |
| Cc1cc(C(=O)N2CCC3(CC2)CN(CC(F)F)CC(c2ncco2)O3)ccc1OC(C)C (stereo not shown) [Compound 209] | < 2000 | – |
| COc1cc(C(=O)N2CCC3(CC2)CN(CC(F)(F)F)C(c2ccccc2)CO3)ccc1OC(C)C (stereo not shown) [Compound 104] | < 2000 | – |
| Cc1cc(C(=O)N2CCC3(CC2)CN(CC(F)(F)F)CC(c2ccccc2)O3)ccc1OCC(C)(C)O (stereo not shown) [Compound 138] | < 2000 | – |
| COCC1CN(c2ncccn2)CC2(CCN(C(=O)c3ccc(C(C)(C)O)c(C)c3)CC2)O1 (stereo not shown) [Compound 267] | 2000 to 5000 | – |
| COCC1CN(CC(C)C)CC2(CCN(C(=O)c3ccc(OC(C)C)c(C)c3)CC2)O1 (stereo not shown) [Compound 111] | < 2000 | – |
| COc1cc(C(=O)N2CCC3(CC2)CN(CC#N)CC(c2ccccc2)O3)ccc1C(C)(C)O (stereo not shown) [Compound 115] | 2000 to 5000 | – |
| CCC1CN(c2ccccn2)CC2(CCN(C(=O)c3ccc(C4(O)CCCC4)c(C)c3)CC2)O1 (stereo not shown) [Compound 103] | < 2000 | – |
| Cc1cc(C(=O)N2CCC3(CC2)CN(CC(F)F)CC(c2ccnn2C)O3)ccc1OC(C)C (stereo not shown) [Compound 11] | < 2000 | – |
| COCC1CN(c2ncccn2)CC2(CCN(C(=O)c3ccc(C(C)(C)O)c(F)c3)CC2)O1 (stereo not shown) [Compound 53] | 2000 to 5000 | – |
| Cc1cccnc1C1CN(CC(F)F)CC2(CCN(C(=O)c3ccc(OC(C)C)c(F)c3)CC2)O1 (stereo not shown) [Compound 261] | < 2000 | – |
| COCC1CN(c2ccc(C)cn2)CC2(CCN(C(=O)c3ccc(OC(C)C)c(C)c3)CC2)O1 (stereo not shown) [Compound 75] | < 2000 | – |
| COCC1CN(C2CCC2)CC2(CCN(C(=O)c3ccc(OC(C)C)c(C)c3)CC2)O1 (stereo not shown) [Compound 285] | < 2000 | – |

| Structure (SMILES) | IC50 [1] [nM] | IC50 [nM] |
| --- | --- | --- |
| COCN1CC(c2ncccn2)OC2(CCN(C(=O)c3ccc(C4(O)CCC4)cc3)CC2)C1 (stereo not shown) [Compound 264] | > 5000 | – |
| COc1cc(C(=O)N2CCC3(CC2)CN(CC(F)F)CC(c2cccc(C)n2)O3)ccc1OC(C)C (stereo not shown) [Compound 253] | 2000 to 5000 | – |
| CCC1CN(c2ccccn2)CC2(CCN(C(=O)c3ccc(C(C)(C)O)c(F)c3)CC2)O1 (stereo not shown) [Compound 41] | < 2000 | – |
| COCC1CN(CC(F)(F)F)CC2(CCN(C(=O)c3ccc(OC(C)C)c(C)c3)CC2)O1 (stereo not shown) [Compound 260] | < 2000 | – |
| COCC1CN(c2ncccn2)CC2(CCN(C(=O)c3ccc(OC(C)C)c(OC)c3)CC2)O1 (stereo not shown) [Compound 173] | 2000 to 5000 | – |
| CCN1CC(c2ccccc2)OC2(CCN(C(=O)c3ccc(OC(C)C)c(F)c3)CC2)C1 (stereo not shown) [Compound 227] | < 2000 | – |
| CCN1CC(c2ccccc2)OC2(CCN(C(=O)c3ccc(OC(C)C)c(CO)c3)CC2)C1 (stereo not shown) [Compound 166] | 2000 to 5000 | – |
| COC(=O)c1ccnc(N2CC(CO)OC3(CCN(C(=O)c4ccc(OC(C)C)c(C)c4)CC3)C2)n1 (stereo not shown) [Compound 36] | > 5000 | – |
| CCC1CN(c2ccccn2)CC2(CCN(C(=O)c3ccc(C4(O)CCC4)c(C)c3)CC2)O1 (stereo not shown) [Compound 176] | < 2000 | – |
| Cc1cc(C(=O)N2CCC3(CC2)CN(Cc2ccccc2)CC(C(C)(C)O)O3)ccc1OC(C)C (stereo not shown) [Compound 179] | > 5000 | – |
| Cc1cc(C(=O)N2CCC3(CC2)CN(CC(F)(F)F)CC(c2ccccc2)O3)ccc1C(C)(C)O (stereo not shown) [Compound 98] | < 2000 | – |
| COCC1CN(Cc2cocn2)CC2(CCN(C(=O)c3ccc(OC(C)C)c(C)c3)CC2)O1 (stereo not shown) [Compound 64] | > 5000 | – |
| CC(C)Oc1ccc(C(=O)N2CCC3(CC2)CN(CC(F)F)CC(c2ccc(F)cc2)O3)cc1F (stereo not shown) [Compound 244] | < 2000 | – |
| CCC1CN(c2ncccn2)CC2(CCN(C(=O)c3ccc(C4(O)CCCC4)c(C)c3)CC2)O1 (stereo not shown) [Compound 50] | < 2000 | – |
| CC(C)Oc1ccc(C(=O)N2CCC3(CC2)CN(CC(F)F)CC(c2ncc(C(C)C)o2)O3)cc1F (stereo not shown) [Compound 159] | > 5000 | – |
| COCC1CN(C2CCCCC2)CC2(CCN(C(=O)c3ccc(OC(C)C)c(C)c3)CC2)O1 (stereo not shown) [Compound 204] | < 2000 | – |
| CC(C)Oc1ccc(C(=O)N2CCC3(CC2)CN(CC(F)F)CC(c2ncc(C(C)(C)C)o2)O3)cc1F (stereo not shown) [Compound 137] | < 2000 | – |
| O=C(c1cc(Cl)cc(Cl)c1)N1CCC2(CC1)CN(CC(F)(F)F)CC(c1ccccc1)O2 (stereo not shown) [Compound 118] | > 5000 | – |
| CCN1CC(c2ccccc2)OC2(CCN(C(=O)c3ccc(OC(C)C)c(OC)c3)CC2)C1 (stereo not shown) [Compound 192] | < 2000 | – |
| CCN1CC(c2ccc(F)cc2)OC2(CCN(C(=O)c3ccc(OC(C)C)c(F)c3)CC2)C1 (stereo not shown) [Compound 259] | < 2000 | – |
| Cc1cccc(C2CN(CC(F)F)CC3(CCN(C(=O)c4ccc(OC(C)C)c(C)c4)CC3)O2)n1 (stereo not shown) [Compound 37] | < 2000 | – |
| Cc1cc(C(=O)N2CCC3(CC2)CN(CC(F)F)CC(c2ncc(C(C)C)o2)O3)ccc1OC(C)C (stereo not shown) [Compound 88] | < 2000 | – |
| COc1cccc(C(=O)N2CCC3(CC2)CN(CC(F)F)CC(c2ccccc2)O3)n1 (stereo not shown) [Compound 144] | 2000 to 5000 | – |
| COCC1CN(C2CCCCCC2)CC2(CCN(C(=O)c3ccc(OC(C)C)c(C)c3)CC2)O1 (stereo not shown) [Compound 201] | < 2000 | – |
